Assay results taken from patent publication US5089623A, “Certain imidate insecticides” (Imperial Chemical Industries Plc, priority 1990, dated 1992).

Experiments:
Format in all cases: in vivo
[1] = system: Aster Leafhopper [Macrosteles fascifrens (Stal)]; assay: Aster leafhopper test (LH); conditions: adults/nymphs, 48 hours, percent in solution
[2] = system: Housefly [Musca domestica]; assay: Housefly insecticidal test (HF); conditions: per 25 female houseflies, 48 hours
[3] = system: Maize weevil [Sitophilus Zeamais (Motschulsky)]; assay: Maize weevil test (MW); conditions: adult weevils, treated corn seeds, 48 hours, percent in solution
How it was run: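 Adult weevils (10) were placed with four corn seeds that had been dipped 2-3 s in compound dissolved in 50:50 acetone:water, then dried, and held at about 25° C. Mortality was scored at 48 h. LC50 was taken from dosage-mortality curves and expressed as percent compound in solution, from a 0.01% top concentration.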

[4] = system: Cabbage Looper [Trichoplusia ni (Hubner)]; assay: Cabbage looper test (CL); conditions: second-instar larvae, 3-5 days, percent in solution
[5] = system: Tobacco Budworm [Heliothis virescens (Fabricius)] eggs; assay: Tobacco budworm egg test (TBW-E); conditions: percent in solution

Compound: CC(C)C(=Nc1ccc2c(c1)OCO2)OCc1cccc(Oc2ccc(C(C)(C)C)cc2)c1 [Compound 367]
- LC50 LH [1]: > 0.05%
- LC50 HF [2]: > 100 µg
- LC50 MW [3]: > 0.01%
- LC50 CL [4]: < 0.1%
- LC50 TBW E [5]: > 0.1%

Compound: FC(F)(F)C(=Nc1ccc(Cl)cc1)OCc1cccc(Oc2ccccc2)c1 [Compound 35]
- LC50 LH [1]: > 0.05%
- LC50 HF [2]: 15 µg
- LC50 MW [3]: > 0.01%
- LC50 CL [4]: 0.008%
- LC50 TBW E [5]: 0.03%

Compound: CC(C)C(=Nc1ccc(F)c(Cl)c1)OCc1cccc(Cc2ccccc2)c1 [Compound 541]
- LC50 LH [1]: > 0.05%
- LC50 HF [2]: < 100 µg
- LC50 MW [3]: > 0.01%
- LC50 CL [4]: 0.001%
- LC50 TBW E [5]: > 0.1%

Compound: COc1cccc(N=C(OCc2cccc(Oc3ccccc3)c2)C(C)C)c1 [Compound 143]
- LC50 LH [1]: 0.006%
- LC50 HF [2]: 10 µg
- LC50 MW [3]: > 0.01%
- LC50 CL [4]: 0.002%
- LC50 TBW E [5]: < 0.1%

Compound: COCc1c(F)c(F)c(COC(=Nc2ccc(F)c(Cl)c2F)C(C)C)c(F)c1F [Compound 522]
- LC50 LH [1]: 0.05%
- LC50 HF [2]: 17.5 µg
- LC50 MW [3]: > 0.01%
- LC50 CL [4]: > 0.1%
- LC50 TBW E [5]: > 0.1%

Compound: CC(C)C(=Nc1cccc(C(F)(F)F)c1)OCc1cccc(Nc2ccc(F)cc2)c1 [Compound 513]
- LC50 LH [1]: > 0.05%
- LC50 HF [2]: 81 µg
- LC50 MW [3]: > 0.01%
- LC50 CL [4]: 0.007%
- LC50 TBW E [5]: > 0.1%

Compound: Cc1ccc(N=C(OCc2ccc(F)c(Oc3ccccc3)c2)C(C)C)cc1F [Compound 354]
- LC50 LH [1]: < 0.05%
- LC50 HF [2]: < 100 µg
- LC50 MW [3]: 0.0068%
- LC50 CL [4]: > 0.1%
- LC50 TBW E [5]: 0.018%

Compound: CSc1ccc(N=C(OCc2ccc(F)c(Oc3ccccc3)c2)C(C)C)cc1 [Compound 353]
- LC50 LH [1]: > 0.05%
- LC50 HF [2]: < 100 µg
- LC50 MW [3]: > 0.01%
- LC50 CL [4]: > 0.1%
- LC50 TBW E [5]: > 0.1%

Compound: CC(C)C(=Nc1ccc(F)c(Cl)c1)OCc1cccc(Oc2ccc(Cl)cn2)c1 [Compound 527]
- LC50 LH [1]: > 0.05%
- LC50 HF [2]: 47 µg
- LC50 MW [3]: > 0.01%
- LC50 CL [4]: 0.00065%
- LC50 TBW E [5]: 0.035%

Compound: CC(C)C(=Nc1ccccc1C(F)(F)F)OCc1cccc(Oc2ccccc2)c1 [Compound 72]
- LC50 LH [1]: > 0.05%
- LC50 HF [2]: > 100 µg
- LC50 MW [3]: > 0.01%
- LC50 CL [4]: 0.08%
- LC50 TBW E [5]: > 0.1%

Compound: COc1ccc(N=C(OCc2cccc(Oc3ccccc3)c2)C(C)C)cc1 [Compound 160]
- LC50 LH [1]: 0.05%
- LC50 HF [2]: 7 µg
- LC50 MW [3]: > 0.01%
- LC50 CL [4]: 0.005%
- LC50 TBW E [5]: 0.09%

Compound: Cc1c(COC(=Nc2ccc(C(C)(C)C)cc2)C(C)C)cccc1-c1ccccc1 [Compound 536]
- LC50 LH [1]: > 0.05%
- LC50 HF [2]: > 100 µg
- LC50 MW [3]: > 0.01%
- LC50 CL [4]: < 0.1%
- LC50 TBW E [5]: > 0.1%

Compound: Cc1cccc(N=C(OCc2cccc(Oc3ccc(Cl)cc3)n2)C(C)C)c1 [Compound 545]
- LC50 LH [1]: > 0.05%
- LC50 HF [2]: < 100 µg
- LC50 MW [3]: > 0.01%
- LC50 CL [4]: > 0.1%
- LC50 TBW E [5]: > 0.1%

Compound: CC(C)C(=Nc1ccc(F)c(Cl)c1)OCc1cccc(Oc2ccccn2)c1 [Compound 549]
- LC50 LH [1]: > 0.05%
- LC50 HF [2]: < 100 µg
- LC50 MW [3]: > 0.01%
- LC50 CL [4]: > 0.1%
- LC50 TBW E [5]: > 0.1%

Compound: CC(C)C(=Nc1ccc([N+](=O)[O-])cc1)OCc1coc(Cc2ccccc2)c1 [Compound 539]
- LC50 LH [1]: > 0.05%
- LC50 HF [2]: 22 µg
- LC50 MW [3]: > 0.01%
- LC50 CL [4]: > 0.1%
- LC50 TBW E [5]: > 0.1%

Compound: CC(C)C(=Nc1ccc2c(c1)OCO2)OCc1cccc(Oc2ccc(Cl)cc2)c1 [Compound 240]
- LC50 LH [1]: > 0.05%
- LC50 HF [2]: 14 µg
- LC50 MW [3]: > 0.01%
- LC50 CL [4]: 0.0003%
- LC50 TBW E [5]: 0.04%

Compound: CC(C)C(=Nc1ccc(Br)cc1F)OCc1cccc(Oc2ccc(F)cc2)c1 [Compound 351]
- LC50 LH [1]: > 0.05%
- LC50 HF [2]: 26 µg
- LC50 MW [3]: > 0.01%
- LC50 CL [4]: 0.0007%
- LC50 TBW E [5]: > 0.1%

Compound: Cc1cc(N=C(OCc2ccc(F)c(Oc3ccccc3)c2)C(C)C)ccc1Br [Compound 358]
- LC50 LH [1]: < 0.05%
- LC50 HF [2]: < 100 µg
- LC50 MW [3]: > 0.01%
- LC50 CL [4]: > 0.1%
- LC50 TBW E [5]: > 0.1%

Compound: CC(C)C(=Nc1ccc(C(C)(C)C)cc1)OCc1cccc(Oc2ccccc2)c1 [Compound 153]
- LC50 LH [1]: 0.0005%
- LC50 HF [2]: > 100 µg
- LC50 MW [3]: > 0.01%
- LC50 CL [4]: 0.004%
- LC50 TBW E [5]: 0.1%

Compound: CC(C)(C)C(=Nc1ccc(Cl)c(Cl)c1)OCc1cccc(Oc2ccccc2)c1 [Compound 25]
- LC50 LH [1]: > 0.05%
- LC50 HF [2]: > 100 µg
- LC50 MW [3]: > 0.01%
- LC50 CL [4]: 0.01%
- LC50 TBW E [5]: > 0.1%

Compound: CCS(=O)(=O)c1ccc(N=C(OCc2cccc(Oc3ccccc3)c2)C(C)C)cc1Cl [Compound 112]
- LC50 LH [1]: > 0.05%
- LC50 HF [2]: > 100 µg
- LC50 MW [3]: > 0.01%
- LC50 CL [4]: 0.025%
- LC50 TBW E [5]: > 0.1%

Compound: Cc1cc(N=C(OCc2ccc(F)c(Oc3ccc(F)cc3)c2)C(C)C)ccc1Br [Compound 359]
- LC50 LH [1]: 0.05%
- LC50 HF [2]: < 100 µg
- LC50 MW [3]: > 0.01%
- LC50 CL [4]: > 0.1%
- LC50 TBW E [5]: 0.023%

Compound: CC(C)C(=Nc1ccc2c(c1)OCO2)OCc1ccnc(Oc2ccccc2)c1 [Compound 540]
- LC50 LH [1]: > 0.05%
- LC50 HF [2]: > 100 µg
- LC50 MW [3]: > 0.01%
- LC50 CL [4]: < 0.1%
- LC50 TBW E [5]: > 0.1%

Compound: CC(C)C(=Nc1ccc(F)c(Cl)c1)OCc1ccc(OCc2ccccc2)cc1 [Compound 475]
- LC50 LH [1]: > 0.05%
- LC50 HF [2]: > 100 µg
- LC50 MW [3]: > 0.01%
- LC50 CL [4]: 0.008%
- LC50 TBW E [5]: > 0.1%

Compound: C#CCc1c(F)c(F)c(COC(=Nc2cccc(C(F)(F)F)c2)C(C)C)c(F)c1F [Compound 546]
- LC50 LH [1]: < 0.05%
- LC50 HF [2]: < 100 µg
- LC50 MW [3]: 0.0032%
- LC50 CL [4]: 0.0001%
- LC50 TBW E [5]: > 0.1%

Compound: CC(C)C(=Nc1ccc(Br)c(C(F)(F)F)c1)OCc1ccc(F)c(Oc2ccc(F)cc2)c1 [Compound 364]
- LC50 LH [1]: < 0.05%
- LC50 HF [2]: < 100 µg
- LC50 MW [3]: > 0.01%
- LC50 CL [4]: 0.00045%
- LC50 TBW E [5]: 0.025%

Compound: CC(=Nc1ccc(F)c(F)c1)OCc1coc(Cc2ccccc2)c1 [Compound 526]
- LC50 LH [1]: > 0.05%
- LC50 HF [2]: 8.3 µg
- LC50 MW [3]: > 0.01%
- LC50 CL [4]: > 0.01%
- LC50 TBW E [5]: > 0.1%

Compound: CC(C)C(=Nc1ccc(OC(F)(F)F)cc1)OCc1cccc(Cc2ccccc2)c1 [Compound 542]
- LC50 LH [1]: > 0.05%
- LC50 HF [2]: > 100 µg
- LC50 MW [3]: > 0.01%
- LC50 CL [4]: > 0.01%
- LC50 TBW E [5]: > 0.1%

Compound: Cc1cccc(N=C(OCc2cccc(Oc3ccccc3)c2)C(C)C)c1 [Compound 155]
- LC50 LH [1]: > 0.05%
- LC50 HF [2]: 9 µg
- LC50 MW [3]: > 0.01%
- LC50 CL [4]: 0.004%
- LC50 TBW E [5]: 0.06%

Compound: CC(C)C(=Nc1ccc2c(c1)OCO2)OCc1cccc(Oc2ccc(Cl)cc2)n1 [Compound 466]
- LC50 LH [1]: > 0.05%
- LC50 HF [2]: 13 µg
- LC50 MW [3]: 0.01%
- LC50 CL [4]: 0.0008%
- LC50 TBW E [5]: > 0.1%
